This note sets out measurements from ChEMBL document CHEMBL4411258, “Novel natural compounds from endophytic fungi with anticancer activity” (Eur J Med Chem, 2018).

The subject of one experiment is U2OS. Description: Cytotoxicity against human U2OS cells by MTT assay. It counts as functional, cell-based. Background: Formazan colour is commonly taken as a measure of viable cells.
Experiment [1] has as its system MCF7. Description: Cytotoxicity against human MCF7 cells by MTT assay. It counts as functional, cell-based.
The target in a further experiment is DNA topoisomerase I (Bos taurus, UniProt F1MN93). Description: Inhibition of calf thymus DNA topoisomerase 1 assessed as decrease in relaxation of supercoiled pBR322 DNA after 30 mins by Genview nucleic acid staining based agarose gel electrophoresis.
The next experiment deals with A2780S. Description: Cytotoxicity against human A2780S cells after 72 hrs by CyQuant dye-based assay. It counts as functional, cell-based.
Another experiment concerns A2780cisR. Description: Cytotoxicity against human A2780cisR cells after 72 hrs by CyQuant dye-based assay. It counts as functional, cell-based.
The test system of a further experiment is GH3. Description: Cytotoxicity against rat GH3 cells by MTT assay. It counts as functional, cell-based.
Another experiment relates to MMQ. Description: Cytotoxicity against rat MMQ cells by MTT assay. It counts as functional, cell-based.
In a further experiment the test system is HepG2. Kind of experiment: Cytotoxicity against human HepG2 cells by MTS assay. It counts as functional, cell-based.
In experiment [2] the test system is A549. Kind of experiment: Cytotoxicity against human A549 cells by MTS assay. It counts as functional, cell-based.
The test system of experiment [3] is MDA-MB-231. Description: Cytotoxicity against human MDA-MB-231 cells by MTS assay. It counts as functional, cell-based.
For experiment [4], the system named is HCT-116. Kind of experiment: Cytotoxicity against human HCT116 cells by MTS assay. It counts as functional, cell-based.
The test system of another experiment is THP-1. Kind of experiment: Cytotoxicity against human THP1 cells by MTS assay. It counts as functional, cell-based.
The test system of the next experiment is T-24. Description: Cytotoxicity against human T24 cells after 48 hrs by MTS assay. As to conditions: T-24, 48 h. It counts as functional, cell-based.
In the next experiment the test system is HeLa. Kind of experiment: Cytotoxicity against human HeLa cells after 48 hrs by MTS assay. It counts as functional, cell-based.
For experiment [5], the system named is A549. Description: Cytotoxicity against human A549 cells after 48 hrs by MTS assay. It counts as functional, cell-based. The conditions noted are these: A549, 48 h.
For experiment [6], the system named is MCF7. Description: Cytotoxicity against human MCF7 cells after 48 hrs by MTS assay. It counts as functional, cell-based. The conditions noted are these: MCF7, 48 h.
The next experiment deals with MIA PaCa-2. Kind of experiment: Cytotoxicity against human MIAPaCa2 cells after 48 hrs by MTT assay. It counts as functional, cell-based. As to conditions: MIA PaCa-2, 48 h.
The test system of a further experiment is SMMC-7721. Kind of experiment: Cytotoxicity against human SMMC7721 cells after 48 hrs by MTT assay. It counts as functional, cell-based. The conditions noted are these: Homo sapiens, SMMC-7721, 48 h; read-out: IC50.
A further experiment relates to RPMI-8226. Kind of experiment: Cytotoxicity against human RPMI8226 cells after 48 hrs by MTT assay. It counts as functional, cell-based. The conditions noted are these: RPMI-8226, 48 h.
Experiment [7] relates to HL-60. Kind of experiment: Cytotoxicity against human HL60 cells after 48 hrs by MTT assay. It counts as functional, cell-based. The conditions noted are these: HL-60, 48 h.
Experiment [8] relates to A549. Description: Cytotoxicity against human A549 cells after 48 hrs by MTT assay. It counts as functional, cell-based. As to conditions: Homo sapiens, A549, 48 h; read-out: IC50.
In another experiment the test system is SW480. Description: Cytotoxicity against human SW480 cells after 48 hrs by MTT assay. It counts as functional, cell-based. As to conditions: SW480, 48 h.
Another experiment deals with OVCAR-3. Kind of experiment: Cytotoxicity against human OVCAR3 cells assessed as reduction in cell viability after 72 hrs by CyQuant dye-based assay. It counts as functional. As to conditions: OVCAR-3, 72 h.
The subject of experiment [9] is HCT-116. Kind of experiment: Cytotoxicity against human HCT116 cells after 48 hrs by sulforhodamine B assay. It counts as functional, cell-based. The conditions noted are these: HCT-116, 48 h. In general terms: In SRB staining, fixed cells bind dye roughly in proportion to their protein.
The subject of experiment [10] is MCF7. Kind of experiment: Cytotoxicity against human MCF7 cells after 48 hrs by sulforhodamine B assay. As to conditions: Homo sapiens, MCF7, 48 h. It counts as functional, cell-based.
The subject of a further experiment is NCI-H460. Kind of experiment: Cytotoxicity against human NCI-H460 cells after 48 hrs by sulforhodamine B assay. It counts as functional, cell-based. The conditions noted are these: Homo sapiens, NCI-H460, 48 h.
The subject of experiment [11] is MDA-MB-231. Kind of experiment: Cytotoxicity against human MDA-MB-231 cells after 72 hrs by MTT assay. The conditions noted are these: MDA-MB-231, 72 h. It counts as functional, cell-based.
In experiment [12] the test system is MCF7. Description: Cytotoxicity against human MCF7 cells after 72 hrs by MTT assay. It counts as functional, cell-based. As to conditions: MCF7, 72 h.
For another experiment, the system named is Caco-2. Description: Cytotoxicity against human Caco2 cells after 72 hrs by MTT assay. It counts as functional, cell-based. The conditions noted are these: Caco-2, 72 h.
For experiment [13], the system named is HL-60. Kind of experiment: Cytotoxicity against human HL60 cells. It counts as functional, cell-based.

Sequence of DNA topoisomerase I (F1MN93 whole entry): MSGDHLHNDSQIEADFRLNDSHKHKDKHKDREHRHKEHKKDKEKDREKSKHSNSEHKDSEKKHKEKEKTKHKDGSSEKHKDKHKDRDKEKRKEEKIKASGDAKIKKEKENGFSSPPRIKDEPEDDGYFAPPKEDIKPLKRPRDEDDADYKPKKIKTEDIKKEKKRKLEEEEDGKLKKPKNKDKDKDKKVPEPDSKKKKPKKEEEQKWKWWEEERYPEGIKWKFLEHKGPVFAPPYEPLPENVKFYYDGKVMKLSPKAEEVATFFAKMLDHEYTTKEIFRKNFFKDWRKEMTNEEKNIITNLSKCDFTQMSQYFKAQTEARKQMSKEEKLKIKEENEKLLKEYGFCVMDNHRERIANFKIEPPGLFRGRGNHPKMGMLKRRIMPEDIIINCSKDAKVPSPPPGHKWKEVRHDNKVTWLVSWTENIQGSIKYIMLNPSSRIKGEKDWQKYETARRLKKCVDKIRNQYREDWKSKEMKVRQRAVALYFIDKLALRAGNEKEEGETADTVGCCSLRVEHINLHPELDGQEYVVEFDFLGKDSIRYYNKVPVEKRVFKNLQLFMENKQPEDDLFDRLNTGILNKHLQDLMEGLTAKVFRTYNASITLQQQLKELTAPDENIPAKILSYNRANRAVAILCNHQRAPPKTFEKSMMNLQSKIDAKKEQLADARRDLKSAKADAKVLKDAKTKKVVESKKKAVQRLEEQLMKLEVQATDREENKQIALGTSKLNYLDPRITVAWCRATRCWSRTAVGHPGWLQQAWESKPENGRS

Turning to `Cc1cc(O)c(C(=O)c2cc(O)cc(O)c2C=O)c(O)c1`, the IC50 (as a rule, the concentration that inhibits the measured activity by half) amounted to 11.6 µM in the experiment on U2OS and 16.8 µM in the experiment with MCF7 [1].

Consider `Cc1cc(O)c2c(c1)[C@H](O)[C@H]1C=C[C@H](O)[C@@H](O)[C@@H]1C2=O`, for which, on DNA topoisomerase I, the IC50 is 23 µM.

For the compound `CCCCC/C=C/C1=C(CO)C(=O)[C@H]2O[C@@]2(C/C=C(\C)C(=O)O)C1=O`, the 50% inhibitory concentration (IC50) was determined as 3.3 µM in the experiment with A2780S and 5.1 µM in the experiment with A2780cisR.

In the case of `Cc1cc(O)cc2c1Oc1c(Cc3ccc(O)cc3)c(O)cc(C)c1C(=O)O2`, the figures for the concentration for half-maximal inhibition (IC50) with GH3 and in the experiment on MMQ were 3.64 µM and 3.09 µM, respectively.

Consider `CCOC(=O)c1c(O)cc(O)cc1CCCCCCCC(C)O` (stereo unspecified), for which the concentration for half-maximal inhibition (IC50) in the experiment on HepG2 was determined as 12.5 µM; in the experiment with A549 [2] it was 13.3 µM; in the experiment with MDA-MB-231 [3], 10.1 µM; in the experiment on HCT-116 [4], 11.9 µM; with THP-1, 39.7 µM.

For `COC(=O)c1cc(OC)cc(O)c1C(=O)c1c(O)cc(C)c2c1O[C@@](C)(CC(=O)[C@@]13C[C@H](O)[C@@H]4O[C@]4(CC=C(C)C)[C@@H]1O3)C2`, the IC50 in the experiment with T-24 turned out to be 39.3 µM; with HeLa, 44.3 µM; with A549 [5], 35.3 µM; with MCF7 [6] it was 38.3 µM.

Turning to `CCCCC/C=C1/C(=O)OC(=O)[C@@H]1C`, half-maximal inhibition with MIA PaCa-2 (IC50) was put at 16 µM.

Turning to `COC(=O)C1=C[C@@H](C)C[C@H]2CC[C@@H](O)[C@@]12O`, the IC50 in the experiment with SMMC-7721, with RPMI-8226, with HL-60 [7], in the experiment on A549 [8], in the experiment on SW480 and in the experiment with MCF7 [6] was 3.6 to 16.2 µM throughout.

As for `CC1=CC[C@H]2C(C)(C)CCC[C@]2(C)[C@H]1C[C@@]12O[C@@H]1C(=O)C(CO)=C[C@H]2O`, the IC50 in the experiment on OVCAR-3 was found to be 0.5 µM.

Take `C/C=C/[C@@H]1OC(=O)C2=C[C@H](O)[C@@H](/C=C/C)O[C@H]21`: the IC50 in the experiment with HCT-116 [9] was determined as 6.2 µM; in the experiment on MCF7 [10], 22.5 µM; with NCI-H460, 1 µM.

Turning to `OCC(O)C(O)C(O)C(O)C(O)O[C@H]1[C@H](O)[C@@H](O)[C@H](O)O[C@@H]1CO` (stereo partly specified), the EC50 (commonly the concentration that produces a half-maximal response) in the experiment on MDA-MB-231 [11] was 92.4 µM; with MCF7 [12] it was 97.6 µM; in the experiment on Caco-2, 99.4 µM.

Consider `COc1cc2c(c3c1Cc1c(cc(O)c(CO)c1C(=O)O)O3)C[C@H]1[C@H](C)CO[C@@]1(C)O2`, for which half-maximal inhibition in the experiment with HL-60 [13] (IC50) was put at 12.4 µM.
